In PubChem BioAssay AID330 (DTP/NCI, 2004):
“And” between values parts separate entries of the source, which are not always exact repeats. Identical values can stand only once. Toxic doses and inconclusive results are not listed. How the source made its calls: active means survival T/C of 150% or more; inactive means T/C below 125% in these data.

System: P388 leukemia ip, CD2F1 mice, survival T/C
Assay: NCI In Vivo Anticancer Drug Screen. Data for tumor model P388 Leukemia (intraperitoneal) in CD2F1 (CDF1) mice
Conditions: endpoint: median survival time, higher = longer survival
Procedure, shortened: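 Mice carrying the transplanted tumor received test compound or vehicle. Survival was recorded in each group, and the value is the treated-group measurement divided by that of the vehicle-treated control group.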

[1] = dose: 25.0 mg/kg/injection, schedule: Q01DX005 (ip), vehicle: Klucel (hydroxypropylcellulose) (HPC)
[2] = dose: 50.0 mg/kg/injection, schedule: Q01DX005 (ip), vehicle: Klucel (hydroxypropylcellulose) (HPC)
[3] = dose: 100.0 mg/kg/injection, schedule: Q01DX005 (ip), vehicle: Klucel (hydroxypropylcellulose) (HPC)
[4] = dose: 25.0 mg/kg/injection, schedule: Q01DX009 (ip), vehicle: Klucel (hydroxypropylcellulose) (HPC)
[5] = dose: 50.0 mg/kg/injection, schedule: Q01DX009 (ip), vehicle: Klucel (hydroxypropylcellulose) (HPC)
[6] = dose: 100.0 mg/kg/injection, schedule: Q01DX009 (ip), vehicle: Klucel (hydroxypropylcellulose) (HPC)
[7] = dose: 200.0 mg/kg/injection, schedule: Q01DX009 (ip), vehicle: Klucel (hydroxypropylcellulose) (HPC)
[8] = dose: 60.0 mg/kg/injection, schedule: Q01DX005 (ip), vehicle: saline with Tween-80
[9] = dose: 240.0 mg/kg/injection, schedule: Q01DX005 (ip), vehicle: saline with Tween-80
[10] = dose: 200.0 mg/kg/injection, schedule: Q01DX005 (ip), vehicle: Klucel (hydroxypropylcellulose) (HPC)
[11] = dose: 50.0 mg/kg/injection, schedule: Q01DX009 (ip), vehicle: saline with Tween-80
[12] = dose: 50.0 mg/kg/injection, schedule: Q01DX005 (ip), vehicle: saline with Tween-80
[13] = dose: 100.0 mg/kg/injection, schedule: Q01DX005 (ip), vehicle: saline with Tween-80
[14] = dose: 200.0 mg/kg/injection, schedule: Q01DX005 (ip), vehicle: saline with Tween-80

Measured: T/C

CCN(CC)CCOC(=O)Cc1ccc2c(=O)cc(-c3ccc(C)cc3)oc2c1
inactive: dose: 12.5 mg/kg/injection, schedule: Q01DX005 (ip), vehicle: Klucel (hydroxypropylcellulose) (HPC) 109 % of control | [1] 108 % of control | [2] 103 % of control and 114 % of control | [3] 121 % of control

O=c1sc2ncccc2n1-c1ccc([N+](=O)[O-])cn1
inactive: dose: 100.0 mg/kg/injection, schedule: Q04DX003 (ip), vehicle: saline 103 % of control | dose: 200.0 mg/kg/injection, schedule: Q04DX003 (ip), vehicle: saline 86 % of control | dose: 400.0 mg/kg/injection, schedule: Q04DX003 (ip), vehicle: saline 89 % of control

COc1ccc(-c2cc(-c3ccccc3)[nH]c(=O)c2N(C)C)cc1
inactive: [4] 90 % of control | [5] 89 % of control | [6] 89 % of control | [7] 86 % of control

COc1cc2c(cc1[N+](=O)[O-])C(=O)C(Br)(Br)CCC2
inactive: [5] 116 % of control | [6] 119 % of control

O=C(Nc1cc(-c2ccccc2)[nH]n1)c1ccccc1
inactive: [8] 103 % of control | dose: 120.0 mg/kg/injection, schedule: Q01DX005 (ip), vehicle: saline with Tween-80 106 % of control | [9] 100 % of control

c1ccc(-c2nc3cc4ccccc4cc3nc2-c2ccccc2)cc1
inactive: [2] 105 % of control | [3] 100 % of control | [10] 99 % of control

COc1ccccc1OCC(=O)c1ccccc1
inactive: dose: 10.0 mg/kg/injection, schedule: Q01DX005 (ip), vehicle: Klucel (hydroxypropylcellulose) (HPC) 102 % of control | dose: 20.0 mg/kg/injection, schedule: Q01DX005 (ip), vehicle: Klucel (hydroxypropylcellulose) (HPC) 96 % of control | dose: 40.0 mg/kg/injection, schedule: Q01DX005 (ip), vehicle: Klucel (hydroxypropylcellulose) (HPC) 100 % of control

O=[N+]([O-])c1ccc(N2CCN(c3ccccc3)CC2)c2c1no[n+]2[O-]
inactive: dose: 37.5 mg/kg/injection, schedule: Q04DX003 (ip), vehicle: saline 105 % of control | dose: 37.5 mg/kg/injection, schedule: Q04DX003 (ip), vehicle: suspension in saline 104 % of control | dose: 75.0 mg/kg/injection, schedule: Q04DX003 (ip), vehicle: saline 100 % of control | dose: 75.0 mg/kg/injection, schedule: Q04DX003 (ip), vehicle: suspension in saline 100 % of control | dose: 150.0 mg/kg/injection, schedule: Q04DX003 (ip), vehicle: saline 97 % of control | dose: 150.0 mg/kg/injection, schedule: Q04DX003 (ip), vehicle: suspension in saline 111 % of control | dose: 300.0 mg/kg/injection, schedule: Q04DX003 (ip), vehicle: saline 101 % of control | dose: 300.0 mg/kg/injection, schedule: Q04DX003 (ip), vehicle: suspension in saline 104 % of control

CN(C)CCO[Si](C)(C)[CH2][Sn]([CH3])([CH3])[CH3]
inactive: dose: 60.0 mg/kg/injection, schedule: Q01DX005 (ip), vehicle: saline 108 % of control | dose: 120.0 mg/kg/injection, schedule: Q01DX005 (ip), vehicle: saline 105 % of control

CN1C2C=CC1c1c(C3=NC(C)(C)CO3)cccc12 (configuration not stated)
inactive: dose: 50.0 mg/kg/injection, schedule: Q01DX005 (ip), vehicle: saline 98 % of control | dose: 100.0 mg/kg/injection, schedule: Q01DX005 (ip), vehicle: saline 103 % of control

CCOC(=O)/C=C(\C)Sc1cc(O)c2ccccc2c1O
inactive: dose: 12.5 mg/kg/injection, schedule: Q01DX009 (ip), vehicle: saline with Tween-80 119 % of control | [11] 108 % of control

C=C(C)[C@@H]1CC[C@]2(C(=O)OC)CC[C@]3(C)[C@H](CC[C@@H]4[C@@]5(C)CC[C@H](O)C(C)(C)[C@@H]5CC[C@]43C)[C@@H]12
inactive: [4] 107 % of control | [5] 102 % of control | [6] 98 % of control | [7] 102 % of control

C[CH2][Sn]1([Cl])[O]CCNCC[O]1
inactive: [1] 103 % of control | [2] 103 % of control and 113 % of control | [3] 116 % of control | [10] 122 % of control

O=S(=O)(O)CNc1ccc(Cl)cc1
inactive: [11] 113 % of control | dose: 100.0 mg/kg/injection, schedule: Q01DX009 (ip), vehicle: saline with Tween-80 113 % of control | dose: 200.0 mg/kg/injection, schedule: Q01DX009 (ip), vehicle: saline with Tween-80 106 % of control

CC(C)CC(NC(=O)C(Cc1cnc[nH]1)N(C(=O)OCc1ccccc1)C(=O)OCc1ccccc1)C(=O)NN (configuration not stated)
inactive: [12] 101 % of control | [13] 106 % of control | [14] 106 % of control

CC(=O)C(=Cc1c(N(C)c2ccccc2)nn2ccccc12)C(C)=O
inactive: dose: 100.0 mg/kg/injection, schedule: Q01DX001 (ip), vehicle: saline with Tween-80 100 % of control | dose: 200.0 mg/kg/injection, schedule: Q01DX001 (ip), vehicle: saline with Tween-80 100 % of control | dose: 400.0 mg/kg/injection, schedule: Q01DX001 (ip), vehicle: saline with Tween-80 100 % of control

CCOc1ccc(-n2cnc3c(=O)[nH]c(N)nc32)cc1
inactive: dose: 15.0 mg/kg/injection, schedule: Q01DX005 (ip), vehicle: saline with Tween-80 90 % of control | dose: 30.0 mg/kg/injection, schedule: Q01DX005 (ip), vehicle: saline with Tween-80 91 % of control | [8] 86 % of control and 90 % of control | [9] 102 % of control

C/C=C/C1OC(O)(C(C)C(O)C(C)C2OC(=O)/C(OC)=C/C(C)=C/C(C)C(O)C(CC)C(O)C(C)C/C(C)=C/C=C/C2OC)CC(OC(=O)/C=C/C(=O)NC2=C(O)CCC2=O)C1C (configuration not stated)
inactive: dose: 0.75 mg/kg/injection, schedule: Q01DX005 (ip), vehicle: Klucel (hydroxypropylcellulose) (HPC) 118 % of control | dose: 1.5 mg/kg/injection, schedule: Q01DX005 (ip), vehicle: Klucel (hydroxypropylcellulose) (HPC) 110 % of control | dose: 3.0 mg/kg/injection, schedule: Q01DX005 (ip), vehicle: Klucel (hydroxypropylcellulose) (HPC) 108 % of control | dose: 6.0 mg/kg/injection, schedule: Q01DX005 (ip), vehicle: Klucel (hydroxypropylcellulose) (HPC) 110 % of control

COc1cc([C@@H]2c3cc(OC(C)=O)c(OC)cc3C[C@@H]3C(=O)OC[C@@H]23)ccc1OC(C)=O
inactive: [12] 98 % of control | [13] 93 % of control | [14] 93 % of control

CC1(C)CCCC(C)(C2CCC3(C)C2C(O)CC2C4(C)CCC(O)C(C)(C)C4CCC23C)O1 (configuration not stated)
inactive: dose: 8.0 mg/kg/injection, schedule: Q01DX009 (ip), vehicle: Klucel (hydroxypropylcellulose) (HPC) 101 % of control | dose: 16.0 mg/kg/injection, schedule: Q01DX009 (ip), vehicle: Klucel (hydroxypropylcellulose) (HPC) 96 % of control | dose: 32.0 mg/kg/injection, schedule: Q01DX009 (ip), vehicle: Klucel (hydroxypropylcellulose) (HPC) 99 % of control | dose: 37.5 mg/kg/injection, schedule: Q01DX009 (ip), vehicle: Klucel (hydroxypropylcellulose) (HPC) 103 % of control | dose: 64.0 mg/kg/injection, schedule: Q01DX009 (ip), vehicle: Klucel (hydroxypropylcellulose) (HPC) 97 % of control | dose: 75.0 mg/kg/injection, schedule: Q01DX009 (ip), vehicle: Klucel (hydroxypropylcellulose) (HPC) 94 % of control | dose: 150.0 mg/kg/injection, schedule: Q01DX009 (ip), vehicle: Klucel (hydroxypropylcellulose) (HPC) 100 % of control | dose: 300.0 mg/kg/injection, schedule: Q01DX009 (ip), vehicle: Klucel (hydroxypropylcellulose) (HPC) 91 % of control
